The term melting point denotes the temperature of the solid-liquid transition.

As to `Cc1nc2c3c(ccn2c1C)[C@@H](OCC(F)(F)F)[C@H](O)[C@@H](c1ccccc1)N3`, the melting point was in the range of 178 to 180 °C.

Molecule `CC(=NOCCO)c1ccc(-c2ccc(C(F)(F)F)cc2)cc1` yielded a melting point of 108 to 111 °C.

`COCc1cc(Cl)n2nc(SCc3ccccc3)nc2n1` came in with a melting point of 79 °C.

`CN1Cc2c(C#Cc3ccc(Cl)cc3)ncn2-c2ccc(F)cc2C1=O`: the melting point lay within 221 to 222 °C.

`CN(C)c1cccc2c1c(=O)n(C)c1c(-c3noc(C4CC4)n3)ncn21` showed a melting point of 170 to 171 °C.

With `O=C1Nc2ccccc2Oc2c1csc2Cl`, the melting point lay in the range of 224 to 227 °C.

With `CC(C)Cn1c(=O)n(C)c(=O)c2nc(-c3ccc(/C=C/C(=O)O)cc3)[nH]c21`, the melting point is greater than 300 °C.

`COC(=O)CCCC(=O)Nc1cccc(Br)n1` came in with a melting point of 128 to 131 °C.

As for `OC1(C#Cc2ccc(-c3ccccn3)cc2)CN2CCC1CC2` (configuration not stated), the melting point was in the range of 205 to 206 °C.

The molecule `CCCCCCOc1ccc(C2OCC(C(=O)O)CO2)cc1` (configuration not stated) displayed a melting point of 30 °C.

Molecule `O=C1CCCCCCCCCCCCCCCCCCCCCC(O)C(=O)OCCCC1` (configuration not stated) gave a melting point of 67 to 68 °C.

With `CN(C)C(=O)Sc1ccccc1C#N`, the melting point came to 70 °C.

`O=Cc1c(-c2ccccc2)nn(-c2ccccc2)c1-c1ccccc1` came in with a melting point of 159 to 160 °C.

With `Cn1cnc2c1c1nnc(-c3ccccc3)n1c(=O)n2Cc1ccccc1`, the melting point is 255 to 257 °C.

For `O=C1C(=O)c2ccccc2C2=C1SCC1(CCN(C3CCCC3O)CC1)O2` (configuration not stated), the melting point fell in the range of 110 to 113 °C.

The molecule `Cn1c2c(c3ccc(-n4ccc(OCc5ccccc5)cc4=O)cc31)CNCCC2` returned a melting point of 178 to 181 °C.

For the molecule `CNC(=O)c1cc(-c2ccc(OC)c(OC)c2)nn(CC(C)C)c1=O`, the melting point fell in the range of 111 to 113 °C.

`CCOC(=O)c1c(O)c2cc(Br)ccc2c(=O)n1CC1CC1` returned a melting point of 64 to 65 °C.

In the case of `N#Cc1cccnc1N1CCN(CC(=O)Nc2cc(F)cc(C(F)(F)F)c2)CC1`, the melting point fell in the range of 108 to 110 °C.

`CC(C)(C)OC(=O)Nc1ccc(Nc2ncnc3[nH]cc(C(=O)c4ccccc4)c23)cc1` came in with a melting point of 274 to 280 °C.

Regarding `Oc1ccc(CCNCC(O)c2ccccn2)cc1` (racemic), the melting point was 112 to 114 °C.

`Cc1c(C(=O)O)c(=O)c(Br)c(-c2ccccc2)n1C` displayed a melting point of 257 to 258 °C.

`O=C(c1ccc(F)c(F)c1Nc1ccc(I)cc1F)N1CC(O)CO1` (configuration not stated) showed a melting point of 122 to 124 °C.

In turn, `CC[Si](CC)(Cc1ccc(N(c2ccccc2)c2ccccc2)cc1)Cc1ccc(N(c2ccccc2)c2ccccc2)cc1` gave a melting point of 115 to 117 °C.

For the molecule `Cn1ncnc1COc1nn2c(-c3ccccc3F)nncc2c1-c1cccc(F)c1F`, the melting point was found to be 176 °C.

In turn, `O=C1C=C(c2ccc(Cl)c(Cl)c2)C(=O)O1` showed a melting point of 112 °C.

On to `CC(C)(CO)NS(=O)(=O)c1cc(NC(=O)c2cnn3c(C(F)(F)F)cc(-c4ccc(C(F)(F)F)c(OCC(F)(F)F)c4)nc23)c(Cl)s1`, for which the melting point was 264 °C.

Molecule `CCCCCCCCCCCCCCCCCCSc1ccc(C)cc1` returned a melting point of 54 to 55 °C.

In turn, `O=C(NNc1ccccc1)c1nc(Cl)c(Cl)[nH]1` showed a melting point of 229 to 230 °C.

The molecule `NS(=O)(=O)c1ccc(C=Nc2ccc(SSc3ccc(N=Cc4ccc(S(N)(=O)=O)cc4)cc3)cc2)cc1` gave a melting point of 200 to 230 °C.

`O=C(c1cccnc1)N1CC2COc3ccc(Cl)cc3C2=N1` (configuration not stated) had a melting point of 165 to 166 °C.

The molecule `CCOc1ccc2c(c1)n(C1CCCCC1)c(=O)n2S(=O)(=O)c1ccc(C(=O)O)cc1OC` registered a melting point of 205 °C.

For `Nc1c(F)cc(Cl)c2nc(Cl)sc12`, the melting point came to 173 °C.

Molecule `N#Cc1cc(Oc2ccc(Cl)cc2Cl)c(O)cc1Cl` yielded a melting point of 145 to 150 °C.

As to `CSCC(C)(C)NC(=O)c1c(I)cccc1C(=O)Nc1ccc(-c2nnnn2C2CC2)cc1C`, the melting point lay in the range of 131 to 132 °C.

In the case of `C#Cc1cnn2c(C)cc(-c3ccc(C(F)(F)F)cc3)nc12`, the melting point was 89 to 90 °C.

`CCN1C(=O)C(C(=O)Nc2cccc(C(=O)Nc3ccc(Br)cc3)c2)c2cc(C(C)=O)ccc21` (configuration not stated): the melting point fell in the range of 117 to 120 °C.

For `COc1cccc([C@H]2O[C@H](CC(=O)NCCCOc3cccc(C(=O)O)c3)C(=O)N(CC(C)(C)CO)c3ccc(Cl)cc32)c1OC`, the melting point was in the range of 132 to 134 °C.

As for `CC1(CC(=O)N2CCC([C@H]3c4ncc(Br)cc4CCc4cc(Cl)cc(Br)c43)CC2)C=CN(S(C)(=O)=O)C=C1`, the melting point was in the range of 105 to 109 °C.

Molecule `COCCNC(=O)c1cc(C)nc(-c2cccc3cc(Cc4cccc(C(F)(F)F)c4)sc23)c1` came in with a melting point of 115 to 116 °C.

Regarding `CCc1c(Oc2cc(C)cc(C)c2)[nH]c(=O)[nH]c1=O`, the melting point was 91 to 92 °C.

The molecule `NC(=O)NCC#CCN1CCCC1` displayed a melting point of 71 to 73 °C.

`CCOC(=O)c1cccc(-c2ccc3ccccc3c2)c1` came in with a melting point of 101 to 103 °C.

In the case of `CC1(C)OC(=O)C(CO)(c2ccc(Cl)cc2Cl)O1` (configuration not stated), the melting point was in the range of 182 to 185 °C.

For `Nc1nc2ccccc2c2c1ncn2CCNC(=O)CCCCC1SCC2NC(=O)NC21` (configuration not stated), the melting point came out at 169 °C.

In turn, `O=C(O)c1cc(S(=O)(=O)Nc2ccc(Cl)cc2Cl)ccc1Cl` had a melting point of 174 °C.

In turn, `Nc1cc(Oc2ccc3c(C(=O)Nc4ccc(F)c(C(F)(F)F)c4)nccc3c2)ncn1` gave a melting point of 219 to 222 °C.

Regarding `COC(=O)c1cc(=O)c2oc3ccccc3c(=O)c2[nH]1`, the melting point lay within 244 to 245 °C.

Molecule `CC(C)(C)CC(C)(C)c1cc(-n2nc3ccc([N+](=O)[O-])cc3n2)c(O)c(C(C)(C)c2ccccc2)c1` had a melting point of 153 to 156 °C.

`N#Cc1nn(-c2c(Cl)cc(C(F)(F)F)cc2Cl)cc1OC(F)F` came in with a melting point of 85 to 87 °C.

Molecule `O=CN(O)C(CC1CCC2(CC1)OCCO2)CS(=O)(=O)c1ccc(Oc2ccc(OC(F)(F)F)cc2)cc1` (configuration not stated) showed a melting point of 140 to 141 °C.

Molecule `CCOc1cc2c(cc1OC)C(c1ccc(NS(=O)(=O)c3ccc(C)cc3)cc1)=N[C@H]1CCN(C)C[C@@H]21` yielded a melting point of 207 to 219 °C.

`CCCCC1(CCCC)CS(=O)(=O)c2ccc(N(C)C)cc2[C@@H](c2ccc(OCc3cccc(CN(CC(=O)O)CC(=O)O)n3)cc2)[C@H]1O` gave a melting point of 153 to 155 °C.

`CC(=O)NC1CCN(c2c(F)cc3c(=O)c(C(=O)O)cn4c3c2CCC4C)CC1` (configuration not stated) gave a melting point of 274 to 277 °C.

With `O=C(O)c1cn(C2CC2)c2nc3cc(N4CCNC(c5ccco5)C4)c(F)cc3cc2c1=O` (racemic), the melting point fell in the range of 240 to 241 °C.

On to `CC(=O)c1cc(F)cc(C#N)c1F`, for which the melting point lay in the range of 80 to 83 °C.

In turn, `Cc1ccc2ncc(CSc3ccc(N)cc3)n2c1` showed a melting point of 128 to 129 °C.

In turn, `O=C1c2ccc(N3CCCCC3)cc2C(=O)c2cc3ccccc3cc21` showed a melting point of 230 to 233 °C.

Molecule `FC(F)(F)c1ccc(-c2cc(C(F)(F)F)n3cnc(-c4cccnc4)c3n2)cc1` gave a melting point of 231 °C.

Molecule `C=CCOc1cccc2nc(C)sc12` gave a melting point of 38 to 39 °C.

`O=C(O)C=CC(=O)NCCCCCCCCCCCCCCCCCC(=O)O` had a melting point of 144 to 148 °C.

`O=C(CN1CCC(Cc2ccccc2)CC1)Nc1cccc([N+](=O)[O-])c1` came in with a melting point of 102 to 104 °C.

For the molecule `COc1ccc(NC(=O)c2ccccc2)cc1NC(=S)Nc1cc(Cl)cc(Cl)c1`, the melting point was in the range of 194 to 195 °C.

Molecule `N#Cc1ccc2oc3cc(O)ccc3c2c1` returned a melting point of 270 to 271 °C.

As to `CC1c2ccccc2-c2[nH]c3ccccc3c21` (configuration not stated), the melting point lay within 153 to 155 °C.

In turn, `Cc1cccc(-c2nc(C(C)C)[nH]c2-c2ccc(F)c(-c3ccco3)c2)n1` displayed a melting point of 78 to 90 °C.

Consider `C/C(=C\c1ccc(OCCS(C)=O)cc1)c1ccc2c(c1)C(C)(C)CCC2(C)C` (configuration not stated), for which the melting point lay within 134 to 136 °C.

Turning to `CCCOc1ccccc1C=C1Oc2ccc(C(=O)O)cc2C1=O`, the melting point is 228 to 229 °C.

In turn, `CCOC(=O)[C@@H]1OC(c2ccc(O)c(OCC)c2)O[C@H]1C(=O)OCC` registered a melting point of 78 to 80 °C.

`O=C(/C=C/c1ccsc1)N1CCOCC1`: the melting point lay within 141 to 142 °C.

With `COc1ccc(C(=O)N[C@@H](CNC(=O)c2ccc(C)cc2)c2ccccc2)cc1`, the melting point lay in the range of 230 to 238 °C.

Molecule `Cc1cc(-c2n[nH]c(Cc3ccccc3)n2)sc1C(=O)NCc1ccccc1` gave a melting point of 168 to 171 °C.

For `CCCCCCCCCCCCCCOc1ccc(O)c(C(=O)OC)c1`, the melting point is 49 to 53 °C.

`COc1cc2c(cc1[N+](=O)[O-])NC(=O)CN(C(=O)C(F)(F)F)C2` came in with a melting point of 204 to 205 °C.

In the case of `CN1CC(c2cccc(Cl)c2)C(=O)C(c2cccc(Cl)c2)C1` (configuration not stated), the melting point is 140 °C.

Molecule `CCCCC(C(C)C)C(CN)CC(=O)O` (configuration not stated) came in with a melting point of 160 to 170 °C.

On to `COc1cc(C(C)O)c([N+](=O)[O-])cc1OC` (configuration not stated), for which the melting point was in the range of 107 to 108 °C.

In the case of `CN(C)C(=O)C(CCO)C1(C)OCCc2c1[nH]c1ccccc21` (configuration not stated), the melting point fell in the range of 158 to 160 °C.

`O=C1c2ccccc2C(=O)c2sc(-c3ccccc3F)nc21` yielded a melting point greater than 260 °C.

Consider `Cc1c(-c2ccccc2)[nH]c(=O)n1C1CCN(CCc2ccccc2)CC1`, for which the melting point was 153 to 155 °C.

With `CCCC(=O)C(=C1NCCCS1)[N+](=O)[O-]`, the melting point lay within 54 to 58.5 °C.

`O=c1[nH]c(-c2c[nH]c3ccccc23)nc2ccc(N3CCCC3)cc12`: the melting point came out at 298 °C.

In turn, `O=C(NN=C1c2cccc(F)c2SCC1c1ccc(F)cc1)Nc1ccc(C(F)(F)F)cc1` (configuration not stated) registered a melting point of 217 to 219 °C.

In turn, `COc1ccc(-n2nc(Sc3ccc(F)cc3)c(C)c(C#N)c2=O)cc1` displayed a melting point of 150 to 152 °C.

Molecule `O=C(NCC1CCOCC1)Nc1ccc(C(F)(F)F)cc1` returned a melting point of 148 to 149 °C.

Molecule `COc1cc(CCCC2SC(=O)NC2=O)ccc1OCc1nc(-c2ccccc2)sc1C` (configuration not stated) had a melting point of 149 to 150 °C.

`COc1ccc(-c2cc(C(=O)NCCCCCCc3ccccc3)cc(-c3cccc(C(F)(F)F)c3)c2OCCO)cc1` displayed a melting point of 153 to 159 °C.

These data come from a melting point compilation (Tetko et al.; mined from patent text by program, amines drawn as free bases though some values may be those of a salt).
